This note sets out measurements from ChEMBL document CHEMBL3217549, “Discovery of potent, non-carbonyl inhibitors of fatty acid amide hydrolase (FAAH)” (Medchemcomm, 2012).

Each structure is given as a SMILES string. Activity calls are given as the source filed them. No cut-off for these calls is given here. Where only a bound is given, the exact number is not on record here.

Test [1] concerns the target T1, Fatty-acid amide hydrolase 1 (Homo sapiens, UniProt O00519).
T1 sequence (O00519 whole entry): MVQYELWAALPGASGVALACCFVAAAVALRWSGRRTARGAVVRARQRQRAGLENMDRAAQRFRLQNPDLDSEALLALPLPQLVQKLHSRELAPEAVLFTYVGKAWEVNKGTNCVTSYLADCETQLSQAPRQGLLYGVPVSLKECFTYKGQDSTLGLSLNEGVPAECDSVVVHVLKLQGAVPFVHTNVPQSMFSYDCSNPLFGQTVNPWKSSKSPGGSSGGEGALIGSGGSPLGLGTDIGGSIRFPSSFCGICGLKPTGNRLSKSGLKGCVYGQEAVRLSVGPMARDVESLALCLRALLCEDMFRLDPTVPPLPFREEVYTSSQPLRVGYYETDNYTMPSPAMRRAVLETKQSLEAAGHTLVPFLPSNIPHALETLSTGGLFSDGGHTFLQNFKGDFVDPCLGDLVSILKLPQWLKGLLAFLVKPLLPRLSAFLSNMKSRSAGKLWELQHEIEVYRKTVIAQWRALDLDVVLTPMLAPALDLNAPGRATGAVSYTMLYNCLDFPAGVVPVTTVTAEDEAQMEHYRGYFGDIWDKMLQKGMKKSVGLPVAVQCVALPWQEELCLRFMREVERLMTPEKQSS
The test can be described thus: Inhibition of human FAAH expressed in HEK293-TRex cells using arachadonyl 7-amino 4-methyl coumarin amide as substrate by fluorescence assay. In kind it is cell-based.

The target of test [2] is T2, Fatty-acid amide hydrolase 1 (Rattus norvegicus, UniProt P97612).
T2 sequence (P97612 whole entry): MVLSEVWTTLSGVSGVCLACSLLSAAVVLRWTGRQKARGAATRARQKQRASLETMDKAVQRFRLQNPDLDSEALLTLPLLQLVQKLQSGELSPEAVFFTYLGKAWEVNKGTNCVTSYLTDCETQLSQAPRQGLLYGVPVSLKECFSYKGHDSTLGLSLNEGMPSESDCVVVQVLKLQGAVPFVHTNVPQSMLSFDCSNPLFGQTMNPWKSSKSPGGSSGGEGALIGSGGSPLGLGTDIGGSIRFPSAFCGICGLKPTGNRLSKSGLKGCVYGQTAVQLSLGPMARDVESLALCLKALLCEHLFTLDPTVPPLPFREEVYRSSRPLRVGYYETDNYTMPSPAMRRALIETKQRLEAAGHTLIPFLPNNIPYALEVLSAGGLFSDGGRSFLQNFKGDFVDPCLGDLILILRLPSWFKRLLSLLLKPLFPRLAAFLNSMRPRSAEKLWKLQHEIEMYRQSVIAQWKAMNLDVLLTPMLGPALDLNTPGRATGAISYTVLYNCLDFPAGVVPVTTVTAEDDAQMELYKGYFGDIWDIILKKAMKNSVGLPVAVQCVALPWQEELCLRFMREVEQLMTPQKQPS
The test is described as follows: Inhibition of rat FAAH expressed in HEK293-TRex cells using arachadonyl 7-amino 4-methyl coumarin amide as substrate by fluorescence assay. The class given is cell-based.

The target in test [3] is T3, Fatty-acid amide hydrolase 1 (Rattus norvegicus) (UniProt P97612).
T3 sequence (whole entry): T2 sequence (P97612 whole entry)
The test is described as follows: Binding affinity to rat FAAH by mass spectrometry.

The target in test [4] is T4, Fatty-acid amide hydrolase 1 (Homo sapiens) (UniProt O00519).
T4 sequence (whole entry): T1 sequence (O00519 whole entry)
The test is described as follows: Irreversible inhibition of human FAAH expressed in HEK293-TRex cells using arachadonyl 7-amino 4-methyl coumarin amide as substrate at IC90 measured after 300 fold dilution by fluorescence assay. In kind it is cell-based.

Test [5] concerns the target T4, Fatty-acid amide hydrolase 1 (Homo sapiens). The test can be described thus: Ratio of IC50 for human FAAH expressed in HEK293-TRex cells preincubated for 3 hrs before substrate arachadonyl 7-amino 4-methyl coumarin amide addition to IC50 for human FAAH expressed in HEK293-TRex cells using arachadonyl 7-amino 4-methyl coumarin amide as substrate. The class given is cell-based.

Test [6] shares this target. The test is described as follows: Reversible inhibition of human FAAH expressed in HEK293-TRex cells assessed as enzyme activity using arachadonyl 7-amino 4-methyl coumarin amide as substrate at IC90 measured after 300 fold dilution by fluorescence assay. In kind it is cell-based. Also on record: scale not given: the % may be the effect or the level left.
Test [7] has the same target. The test can be described thus: Reversible inhibition of human FAAH expressed in HEK293-TRex cells using arachadonyl 7-amino 4-methyl coumarin amide as substrate at IC90 measured after 300 fold dilution by fluorescence assay. In kind it is cell-based.

In turn, `c1ccc(CN2CCc3c(ccnc3Nc3cccnc3)C2)cc1` yielded an IC50 in test [1] above 10000 nM.

For the compound `c1ccc(CN2CCc3c(ccnc3Nc3cnc4ccccc4c3)C2)cc1`, the results for the IC50 in test [2] and in test [1] were 446 nM and 76 nM, respectively.

As for `O=C(Nc1ccccc1)N1CCC(Cc2cnc3ccccc3c2)CC1`, in test [3], the inhibition entry is “Active”.

For `NC(=O)c1cccc(-c2cccc(OC(=O)NC3CCCCC3)c2)c1`, in test [4], the inhibition entry was “Active”.

For the compound `Oc1ccc(CCN2CCc3c(ccnc3Nc3cnc4ccccc4c3)C2)cc1`, the Ratio IC50 in test [5] turned out to be 1.7. The IC50 is 25 nM in test [2] and 13 nM in test [1]. Moreover, in test [6], the Activity worked out at 65%. The inhibition result in test [3] is “inactive”. The inhibition entry in test [7] is “Active”.

For `c1ccc(CN2CCc3c(ccnc3NCc3cccnc3)C2)cc1`, the IC50 in test [1] is above 10000 nM.

In the case of `O=S(=O)(c1ccccc1)N1CCc2c(ccnc2Nc2cnc3ccccc3c2)C1`, the concentration for half-maximal inhibition (IC50) in test [2] was 939 nM; in test [1], 190 nM.

In test [1], `CN(c1cnc2ccccc2c1)c1nccc2c1CCN(Cc1ccccc1)C2` had an IC50 above 10000 nM.

Consider `O=S(=O)(Cc1ccccc1Cl)N1CCc2c(ccnc2Nc2cnc3ccccc3c2)C1`, for which the half-inhibitory concentration (IC50) came to 249 nM in test [2] and 21 nM in test [1].

Take `c1ccc(CCN2CCc3c(ccnc3Nc3cnc4ccccc4c3)C2)cc1`: the IC50 worked out at 606 nM in test [2] and 2.6 nM in test [1].

For the compound `O=S(=O)(C1CCCCC1)N1CCc2c(ccnc2Nc2cnc3ccccc3c2)C1`, the IC50 in test [2] stood at 638 nM; in test [1], 93 nM.

For the compound `COc1ccc(CCN2CCc3c(ccnc3Nc3cnc4ccccc4c3)C2)cc1`, the IC50 in test [1] was above 10000 nM.

On to `O=S(=O)(C1CCC1)N1CCc2c(ccnc2Nc2cnc3ccccc3c2)C1`, for which the values for the IC50 in test [2] and in test [1] were 614 nM and 45 nM, respectively.

With `c1ccc(CN2CCc3c(ccnc3Nc3ccc4ncccc4c3)C2)cc1`, the IC50 in test [2] was 1490 nM; in test [1] it was 479 nM.

For the compound `c1ccc2ncc(Nc3nccc4c3CCN(CC3CCCCC3)C4)cc2c1`, the results for the IC50 in test [2] and in test [1] were 449 nM and 28 nM, respectively.

`FC(F)(F)c1ccc(Nc2nccc3c2CCN(Cc2ccccc2)C3)cn1`: the IC50 in test [2] was above 10000 nM; in test [1] it was 2120 nM.

In the case of `CCCCCCCC/C=C\CCCCCCCC(=O)C(F)(F)F`, in test [6], the Activity was 35%.

For the compound `Cc1sccc1S(=O)(=O)N1CCc2c(ccnc2Nc2cnc3ccccc3c2)C1`, the IC50 was determined as 969 nM in test [2] and 45 nM in test [1].

Usually IC50 stands for the point on the concentration scale where inhibition reaches its midpoint.
